Measurements taken from patent publication US7141546B1, “CRFR2 selective ligands” (priority 2001, dated 2006).
Like-named read-outs stand apart in the source and are kept apart here. Bridge positions count the residues as written; N and C are the ends. Square brackets hold non-standard residues; d marks the D form. Peptide text beside a SMILES is read from it. αMeL = CC(C)C[C@](C)(N)C(=O)O; Nle = CCCC[C@H](N)C(=O)O

What was measured:
CRFR1 [1] = molecular target: T1, CRFR1 (Homo sapiens, UniProt P34998); assay: Competitive displacement binding assay, cloned hCRFR1 expressed in CHO cells
T1 construct: expressed in transfected cells
T1 sequence (P34998 24-415): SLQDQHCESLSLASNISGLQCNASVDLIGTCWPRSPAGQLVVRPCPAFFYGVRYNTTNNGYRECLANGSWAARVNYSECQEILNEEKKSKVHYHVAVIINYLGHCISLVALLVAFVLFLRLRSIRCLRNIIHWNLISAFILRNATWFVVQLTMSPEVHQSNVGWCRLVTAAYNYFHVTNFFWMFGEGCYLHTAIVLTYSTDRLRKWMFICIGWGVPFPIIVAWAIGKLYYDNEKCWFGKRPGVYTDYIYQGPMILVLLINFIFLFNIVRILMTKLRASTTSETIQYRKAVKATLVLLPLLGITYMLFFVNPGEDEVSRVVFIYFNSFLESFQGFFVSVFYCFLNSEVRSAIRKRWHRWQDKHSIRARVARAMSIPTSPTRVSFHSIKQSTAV
Source text: A candidate CRFR2 ligand is also easily evaluated in a binding assay using known CRF receptors, such as that described in Perrin, M., et al., Endocrinology, 118, 1171–1179 (1986). CRF receptors and the details of binding assays are discussed later in this specification. […] One such representative binding assay utilizing CRF-R1 receptor is described in Chen, et al., P.N.A.S., 90, 8967–8971 (October 1993).
(§1) CRF receptors have now been cloned and are disclosed in the aforementioned Chen et al. article, in Perrin, M., et al., P.N.A.S, 92, 2969–2973 (March 1995), and in Lovenberg, T., et al., P.N.A.S., 92, 836–840 (January 1995). Binding affinity is a term used to refer to the strength of interaction between ligand and receptor. […] Ki (inhibitory binding affinity constant) is determined using a “standard” or “tracer” radioactive ligand and thus measures the displacement of the tracer from the receptor or binding protein; it is most properly expressed with reference to such tracer. However, so long as these assays are carefully performed under specific conditions with relatively low concentrations of receptor or the like, the calculated Ki will be substantially the same as its dissociation constant KD. […] It is particularly efficient to test for Ki because only a single tracer need be labelled, e.g. radioiodinated. […] Those reported hereinafter are derived using radioactively labeled [Tyr Glu^1, Nle^17]-Svg as a radioligand.
(§2) Binding assays with cells expressing human CRFR1 are carried out as described in the Chen et al. P.N.A.S., supra. The affinities of test peptides for CRFR1 and CRFR2b stably expressed in CHO cells were determined by competitive displacement of ^125I-(Nle^21, Tyr^32) ovine CRF (for CRFR1) or of [^125I-Tyr^o-]Ucn (for CRFR2b) as described.

human CRFR2b = molecular target: T2, human CRFR2b (Homo sapiens, UniProt Q13324); assay: Competitive displacement binding assay, stably transfected CHO cells expressing human CRFR2b; conditions: for binding selectivity, CRFR2 versus CRFR1: in words, binding to CRFR2 compared with CRFR1
T2 construct: expressed in transfected cells
T2 sequence (Q13324 1-438 isoform Q13324-2): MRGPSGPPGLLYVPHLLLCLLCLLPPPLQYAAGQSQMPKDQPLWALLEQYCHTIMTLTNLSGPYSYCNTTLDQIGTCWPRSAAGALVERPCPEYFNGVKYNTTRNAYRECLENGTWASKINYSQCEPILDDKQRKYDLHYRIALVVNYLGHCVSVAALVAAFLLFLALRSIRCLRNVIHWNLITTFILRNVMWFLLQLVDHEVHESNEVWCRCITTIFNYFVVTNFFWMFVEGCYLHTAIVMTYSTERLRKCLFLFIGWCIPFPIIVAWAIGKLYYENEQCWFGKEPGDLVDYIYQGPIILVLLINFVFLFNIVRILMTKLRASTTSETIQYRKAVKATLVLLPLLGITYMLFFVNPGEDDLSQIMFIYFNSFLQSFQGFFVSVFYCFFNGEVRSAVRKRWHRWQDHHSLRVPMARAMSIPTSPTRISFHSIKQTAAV
Description: as §1, §2

CRFR1 [2] = molecular target: T1, CRFR1; assay: cAMP accumulation in CHO cells stably transfected with CRFR1 and treated with CRF; assay type: cell-based
Source text: (§3) In addition to inhibiting CRF receptor binding, a candidate's CRF receptor antagonist activity may be established by the ability of the compound to antagonize an activity associated with CRF. For example, CRF is known to stimulate various biochemical processes, including adenylate cyclase activity. Therefore, compounds may be evaluated as CRF antagonists by their ability to antagonize CRF-stimulated adenylate cyclase activity by, for example, measuring cAMP levels. The inhibition of CRF-stimulated adenylate cyclase activity, determined by the assay described by G. Battaglia et al., Synapse 1:572 (1987), provides an assay for determining a compound's ability to antagonize CRF activity. Accordingly, CRF receptor antagonist activity may be determined by assay techniques which generally include an initial binding assay followed by such a cAMP screening protocol.
as §2

CRFR2 = molecular target: T3, CRFR2 (Homo sapiens, UniProt Q13324); assay: cAMP accumulation in CHO cells stably transfected with CRFR2 and treated with CRF; assay type: cell-based; conditions: for antagonism of CRF activity with respect to CRFR2 (cAMP accumulation): CHO cells stably transfected with CRFR2, treated with CRF
T3 construct: expressed in transfected cells
T3 sequence (Q13324 1-438 isoform Q13324-2): T2 sequence (Q13324 1-438 isoform Q13324-2)
Source text: as §3, with “protocol. […]” for “protocol.”

| Compound | antagonism of CRF activity with respect to CRFR1 (cAMP accumulation) (CRFR1 [2]) | antagonism of CRF activity with respect to CRFR2 (cAMP accumulation) (CRFR2) | binding selectivity, CRFR2 versus CRFR1 (human CRFR2b) | further results |
| --- | --- | --- | --- | --- |
| CCCC[C@H](NC(=O)[C@H](CCCCN)NC(=O)[C@H](CCCNC(=N)N)NC(=O)[C@H](CC(C)C)NC(=O)[C@](C)(CC(C)C)NC(=O)[C@H](Cc1c[nH]cn1)NC(=O)[C@@H](Cc1ccccc1)NC(=O)[C@H](CO)NC(=O)[C@H](CC(C)C)NC(=O)[C@H](CC(=O)O)NC(C)=O)C(=O)N[C@H](C(=O)N[C@@H](CCC(=O)O)C(=O)N[C@H](C(=O)N[C@@H](CCC(=O)O)C(=O)N[C@@H](CCCCN)C(=O)N[C@@H](CCC(N)=O)C(=O)N[C@@H](CCC(=O)O)C(=O)N[C@@H](CCCCN)C(=O)N[C@@H](CCC(=O)O)C(=O)N[C@@H](CCCCN)C(=O)N[C@@H](CCC(N)=O)C(=O)N[C@@H](CCC(N)=O)C(=O)N[C@@H](C)C(=O)N[C@H]1CCC(=O)NCCCC[C@@H](C(=O)N[C@@H](CC(C)C)C(=O)N[C@@H](CC(C)C)C(=O)N[C@@H](CC(C)C)C(=O)N[C@@H](CC(=O)O)C(=O)N[C@@](C)(CC(C)C)C(=O)N[C@H](C(N)=O)[C@@H](C)CC)NC(=O)[C@H](CC(N)=O)NC(=O)[C@H](CC(N)=O)NC1=O)[C@@H](C)CC)[C@@H](C)CC [Example 2 cyclic peptide, (cyclo 31–34)[Ac-D-Phe^11, His^12, CML^13,39, Nle^17, Glu^31, Lys^34]-sauvagine(8–40)] | little or no effect | effectively antagonize CRF activity | – | IC50 (CRFR1 [1]): > 500 nM; Ki (CRFR1 [1]): ~543 nM; IC50 (human CRFR2b): 1.3 nM |
| CCCC[C@H](NC(=O)[C@H](CCC(=O)O)NC(=O)[C@H](CC(C)C)NC(=O)[C@@H](NC(=O)[C@H](CCC(=O)O)NC(=O)[C@H](CCCNC(=N)N)NC(=O)[C@H](CC(C)C)NC(=O)[C@](C)(CC(C)C)NC(=O)[C@H](Cc1c[nH]cn1)NC(=O)[C@H](N)Cc1ccccc1)C(C)C)C(=O)N[C@@H](C)C(=O)N[C@@H](CCCNC(=N)N)C(=O)N[C@@H](C)C(=O)N[C@@H](CCC(=O)O)C(=O)N[C@@H](CCC(N)=O)C(=O)N[C@@H](CC(C)C)C(=O)N[C@@H](C)C(=O)N[C@@H](CCC(N)=O)C(=O)N[C@@H](CCC(N)=O)C(=O)N[C@@H](C)C(=O)N[C@H]1CCC(=O)NCCCC[C@@H](C(=O)N[C@@H](CCCCN)C(=O)N[C@@H](CC(C)C)C(=O)N[C@@H](CCCC)C(=O)N[C@@H](CCC(=O)O)C(=O)N[C@@](C)(CC(C)C)C(=O)N[C@H](C(N)=O)[C@@H](C)CC)NC(=O)[C@H](CC(N)=O)NC(=O)[C@H](CO)NC1=O [Example 9B, (cyclo 32–35) [D-Phe^12, CML^14,40, Nle^21,38, Glu^32, Lys^35]-r/hCRF(12–41)] (H-[dF]H[αMeL]LREVLE[Nle]ARAEQLAQQAESNKKL[Nle]E[αMeL]I-NH2; lactam 21-24) | – | – | – | IC50 (CRFR1 [1]; read-out: affinity of cloned hCRFR1 for the peptide (competitive displacement of bound radioligand)): > 100 nM |
| (cyclo 31–34) [Ac-Asp^8,D-Phe^11,Lys^34]-Ucn(8–40) [Example 10C] | little or no effect | effectively antagonize CRF activity | very good selectivity | selectivity as Ucn antagonist (CRFR2; in words, compared with the parent Ucn analog): does not significantly alter its selectivity |
| (cyclo 31–34) [D-Tyr^11, Lys^34], -Ucn(11–40) [Example 10] | little or no effect | effectively antagonize CRF activity | very good selectivity | – |
| (cyclo 31–34)[Ac-D-2Nal^11, His^12, CML^13,39, Nle^17, Glu^31, Lys^34]-sauvagine(11–40) [Example 6] | – | effectively antagonize CRF activity | – | – |
| (cyclo 31–34)[Ac-D-3 Pal^11, His^12, CML^13,39, Nle^17, Glu^31, Lys^34]-sauvagine(11–40) [Example 7] | – | effectively antagonize CRF activity | – | – |
| (cyclo 31–34)[Ac-D-Cpa^11, His^12, CML^13,39, Nle^17, Glu^31, Lys^34]-sauvagine(11–40) [Example 5] | – | effectively antagonize CRF activity | – | – |
| (cyclo 31–34)[Ac-D-Leu^11, His^12, CML^13,39, Nle^17, Glu^31 Lys^34]-sauvagine(8–40) [Example 3] | – | effectively antagonize CRF activity | – | – |
| (cyclo 31–34)[Ac-D-Phe^11, His^12, CML^13,39, Nle^17, Glu^31, Orn^34]-sauvagine(11–40) [Example 8] | – | effectively antagonize CRF activity | – | – |
| (cyclo 31–34)[Ac-D-Tyr^11, His^12, CML^13,39, Nle^17, Glu^31, Lys^34]-sauvagine(11–40) [Example 4] | – | effectively antagonize CRF activity | – | – |
| (cyclo 31–34)[D-Phe^11, Lys^34]-Ucn(11–40) [Example 10A] | little or no effect | effectively antagonize CRF activity | very good selectivity | – |
| [Ac-Asp^8,D-Phe^11,CML^13,39, Lys^34]-Ucn(8–40) [Example 10D] | little or no effect | effectively antagonize CRF activity | very good selectivity | – |
| [D-Phe^11, Gln^31,Lys(Ac)^34]-Ucn(11–40) [Example 10B] | little or no effect | effectively antagonize CRF activity | very good selectivity | – |
